# Data: ChEMBL document CHEMBL1201862, “PubChem BioAssay data set” (2004)
#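 Results reflect a 48-hour exposure of cells in 96-well plates to compound at five concentrations. GI50: concentration for 50% inhibition of growth.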 Calls of active or inactive are those of the source. Cut-off read from the data, not from the text of the source: active = GI50 up to about 1.1 µM and inactive = higher. Where a SMILES comes first, the peptide text is derived from it. The star is where a group is joined. Fmoc = O=C(OCC1c2ccccc2-c2ccccc21)*; Boc = CC(C)(C)OC(=O)*
# Experiments:
# Assay in all cases: inhibition of tumour cell growth, NCI panel, 48 h
# 786-0 = system: 786-0
# A549 = system: A549
# ACHN = system: ACHN
# BT-549 = system: BT-549
# CAKI-1 = system: CAKI-1
# CCRF-CEM = system: CCRF-CEM
# COLO 205 = system: COLO 205
# DU-145 = system: DU-145
# EKVX = system: EKVX
# HCC 2998 = system: HCC 2998
# HCT-116 = system: HCT-116
# HCT-15 = system: HCT-15
# HL-60 = system: HL-60
# HOP-62 = system: HOP-62
# HT-29 = system: HT-29
# Hs-578T = system: Hs-578T
# IGROV-1 = system: IGROV-1
# K562 = system: K562
# KM12 = system: KM12
# LOX IMVI = system: LOX IMVI
# M14 = system: M14
# MCF7 = system: MCF7
# MDA-MB-231 = system: MDA-MB-231
# MDA-MB-435 = system: MDA-MB-435
# MDA-N = system: MDA-N
# MOLT-4 = system: MOLT-4
# Malme-3M = system: Malme-3M
# NCI-H226 = system: NCI-H226
# NCI-H23 = system: NCI-H23
# NCI-H522 = system: NCI-H522
# NCI/ADR-RES = system: NCI/ADR-RES
# OVCAR-3 = system: OVCAR-3
# OVCAR-4 = system: OVCAR-4
# OVCAR-5 = system: OVCAR-5
# OVCAR-8 = system: OVCAR-8
# PC-3 = system: PC-3
# RPMI-8226 = system: RPMI-8226
# RXF 393 = system: RXF 393
# SF-268 = system: SF-268
# SF-295 = system: SF-295
# SK-MEL-28 = system: SK-MEL-28
# SK-MEL-2 = system: SK-MEL-2
# SK-MEL-5 = system: SK-MEL-5
# SK-OV-3 = system: SK-OV-3
# SN12C = system: SN12C
# SNB-19 = system: SNB-19
# SNB-75 = system: SNB-75
# SR = system: SR
# SW-620 = system: SW-620
# T47D = system: T47D
# TK-10 = system: TK-10
# U-251 = system: U-251
# UACC-257 = system: UACC-257
# UACC-62 = system: UACC-62
# UO-31 = system: UO-31
# A498 = system: A498
# NCI-H460 = system: NCI-H460
# SF-539 = system: SF-539
# HOP-92 = system: HOP-92
smiles,measurement,setting,value
COc1c2c(cc3occ(-c4ccc(CC=C(C)C)cc4)c(=O)c13)OC(C)(C)C=C2,GI50,786-0,84.1 µM (inactive)
same,GI50,A549,30.1 µM (inactive)
same,GI50,ACHN,77.6 µM (inactive)
same,GI50,BT-549,76.2 µM (inactive)
same,GI50,CAKI-1,> 100 µM (inactive)
same,GI50,CCRF-CEM,12.8 µM (inactive)
same,GI50,COLO 205,43.4 µM (inactive)
same,GI50,DU-145,84.7 µM (inactive)
same,GI50,EKVX,28.4 µM (inactive)
same,GI50,HCC 2998,59.2 µM (inactive)
same,GI50,HCT-116,26.4 µM (inactive)
same,GI50,HCT-15,45.9 µM
same,GI50,HL-60,10.3 µM (inactive)
same,GI50,HOP-62,> 100 µM (inactive)
same,GI50,HT-29,26.9 µM (inactive)
same,GI50,Hs-578T,85.1 µM (inactive)
same,GI50,IGROV-1,> 100 µM (inactive)
same,GI50,K562,10.6 µM (inactive)
same,GI50,KM12,41.4 µM (inactive)
same,GI50,LOX IMVI,23.6 µM (inactive)
same,GI50,M14,34.3 µM (inactive)
same,GI50,MCF7,31 µM (inactive)
same,GI50,MDA-MB-231,> 100 µM (inactive)
same,GI50,MDA-MB-435,27 µM (inactive)
same,GI50,MDA-N,44.6 µM (inactive)
same,GI50,MOLT-4,10.7 µM (inactive)
same,GI50,Malme-3M,60.5 µM (inactive)
same,GI50,NCI-H226,48.1 µM (inactive)
same,GI50,NCI-H23,25.8 µM (inactive)
same,GI50,NCI-H522,13.9 µM (inactive)
same,GI50,NCI/ADR-RES,18.2 µM (inactive)
same,GI50,OVCAR-3,10.3 µM (inactive)
same,GI50,OVCAR-4,> 10 µM (inactive)
same,GI50,OVCAR-5,> 100 µM (inactive)
same,GI50,OVCAR-8,48.4 µM (inactive)
same,GI50,PC-3,17.1 µM (inactive)
same,GI50,RPMI-8226,6.97 µM (inactive)
same,GI50,RXF 393,43.4 µM (inactive)
same,GI50,SF-268,> 100 µM (inactive)
same,GI50,SF-295,35.4 µM (inactive)
same,GI50,SK-MEL-28,> 100 µM (inactive)
same,GI50,SK-MEL-2,11.2 µM (inactive)
same,GI50,SK-MEL-5,11.7 µM (inactive)
same,GI50,SK-OV-3,> 100 µM (inactive)
same,GI50,SN12C,84.1 µM (inactive)
same,GI50,SNB-19,61.1 µM (inactive)
same,GI50,SNB-75,60.1 µM (inactive)
same,GI50,SR,8.55 µM (inactive)
same,GI50,SW-620,45.6 µM (inactive)
same,GI50,T47D,16.5 µM (inactive)
same,GI50,TK-10,81.8 µM (inactive)
same,GI50,U-251,33.7 µM (inactive)
same,GI50,UACC-257,39.4 µM (inactive)
same,GI50,UACC-62,> 100 µM (inactive)
same,GI50,UO-31,33.1 µM (inactive)
CSC1=NN(c2ccccc2)C(=O)C1=C(SC)SC,GI50,786-0,24.2 µM (inactive)
same,GI50,A498,13.3 µM (inactive)
same,GI50,A549,20 µM (inactive)
same,GI50,BT-549,27.4 µM (inactive)
same,GI50,CAKI-1,20 µM (inactive)
same,GI50,CCRF-CEM,14.2 µM (inactive)
same,GI50,COLO 205,13.2 µM (inactive)
same,GI50,DU-145,29.9 µM (inactive)
same,GI50,EKVX,27.7 µM (inactive)
same,GI50,HCC 2998,25.6 µM (inactive)
same,GI50,HCT-116,16.7 µM (inactive)
same,GI50,HCT-15,20.1 µM
same,GI50,HL-60,15.9 µM (inactive)
same,GI50,HT-29,19.1 µM (inactive)
same,GI50,Hs-578T,18.1 µM (inactive)
same,GI50,K562,20.1 µM (inactive)
same,GI50,KM12,31.6 µM (inactive)
same,GI50,LOX IMVI,20.2 µM (inactive)
same,GI50,M14,37.2 µM (inactive)
same,GI50,MCF7,19.2 µM (inactive)
same,GI50,MDA-MB-231,14.3 µM (inactive)
same,GI50,MDA-MB-435,31.9 µM (inactive)
same,GI50,MDA-N,30.7 µM (inactive)
same,GI50,MOLT-4,26 µM (inactive)
same,GI50,Malme-3M,11.2 µM (inactive)
same,GI50,NCI-H226,16.1 µM (inactive)
same,GI50,NCI-H23,19.1 µM (inactive)
same,GI50,NCI-H460,14.2 µM (inactive)
same,GI50,NCI-H522,2.44 µM (inactive)
same,GI50,NCI/ADR-RES,18.4 µM (inactive)
same,GI50,OVCAR-3,42.6 µM (inactive)
same,GI50,OVCAR-4,19.4 µM (inactive)
same,GI50,OVCAR-5,31.6 µM (inactive)
same,GI50,OVCAR-8,21.5 µM (inactive)
same,GI50,PC-3,15.1 µM (inactive)
same,GI50,RPMI-8226,14.3 µM (inactive)
same,GI50,RXF 393,13.9 µM (inactive)
same,GI50,SF-268,26.1 µM (inactive)
same,GI50,SF-539,21.7 µM (inactive)
same,GI50,SK-MEL-28,30.5 µM (inactive)
same,GI50,SK-MEL-2,22.8 µM (inactive)
same,GI50,SK-MEL-5,16.3 µM (inactive)
same,GI50,SK-OV-3,31.1 µM (inactive)
same,GI50,SN12C,28.4 µM (inactive)
same,GI50,SNB-19,23.2 µM (inactive)
same,GI50,SNB-75,27.4 µM (inactive)
same,GI50,SR,24 µM (inactive)
same,GI50,SW-620,33.5 µM (inactive)
same,GI50,T47D,18.2 µM (inactive)
same,GI50,TK-10,19.5 µM (inactive)
same,GI50,U-251,22.2 µM (inactive)
same,GI50,UACC-257,16 µM (inactive)
same,GI50,UACC-62,21.2 µM (inactive)
same,GI50,UO-31,12.1 µM (inactive)
CC(C)(C)OC(=O)NCCCCC(NC(=O)OCC1c2ccccc2-c2ccccc21)C(=O)N1CCCC1C(=O)NCC(N)=O (stereo not drawn) (Fmoc-Lys(Boc)-Pro-Gly-NH2; configuration not given here),GI50,786-0,19.3 µM (inactive)
same,GI50,A549,51.4 µM (inactive)
same,GI50,ACHN,17.9 µM (inactive)
same,GI50,BT-549,66.2 µM (inactive)
same,GI50,CAKI-1,16.4 µM (inactive)
same,GI50,CCRF-CEM,76.6 µM (inactive)
same,GI50,COLO 205,28.4 µM (inactive)
same,GI50,DU-145,> 100 µM (inactive)
same,GI50,EKVX,76.2 µM (inactive)
same,GI50,HCC 2998,58.2 µM (inactive)
same,GI50,HCT-116,36.6 µM (inactive)
same,GI50,HCT-15,16.1 µM
same,GI50,HL-60,32.8 µM (inactive)
same,GI50,HOP-62,89.1 µM (inactive)
same,GI50,HOP-92,20.4 µM (inactive)
same,GI50,HT-29,31.3 µM (inactive)
same,GI50,Hs-578T,> 100 µM (inactive)
same,GI50,IGROV-1,48.4 µM (inactive)
same,GI50,K562,48.1 µM (inactive)
same,GI50,KM12,20.7 µM (inactive)
same,GI50,LOX IMVI,21.3 µM (inactive)
same,GI50,M14,35.1 µM (inactive)
same,GI50,MCF7,43.9 µM (inactive)
same,GI50,MDA-MB-231,46.7 µM (inactive)
same,GI50,MDA-MB-435,27.6 µM (inactive)
same,GI50,MDA-N,19.3 µM (inactive)
same,GI50,MOLT-4,29.5 µM (inactive)
same,GI50,Malme-3M,18.3 µM (inactive)
same,GI50,NCI-H226,> 100 µM (inactive)
same,GI50,NCI-H23,94.8 µM (inactive)
same,GI50,NCI-H460,20.3 µM (inactive)
same,GI50,NCI/ADR-RES,33.4 µM (inactive)
same,GI50,OVCAR-3,45.1 µM (inactive)
same,GI50,OVCAR-4,23.2 µM (inactive)
same,GI50,OVCAR-5,> 100 µM (inactive)
same,GI50,OVCAR-8,66.5 µM (inactive)
same,GI50,PC-3,27.9 µM (inactive)
same,GI50,RPMI-8226,50.7 µM (inactive)
same,GI50,RXF 393,61 µM (inactive)
same,GI50,SF-268,95.5 µM (inactive)
same,GI50,SF-295,78.3 µM (inactive)
same,GI50,SF-539,88.1 µM (inactive)
same,GI50,SK-MEL-28,> 100 µM (inactive)
same,GI50,SK-MEL-2,> 100 µM (inactive)
same,GI50,SK-MEL-5,80.4 µM (inactive)
same,GI50,SK-OV-3,2.17 µM (inactive)
same,GI50,SN12C,16.2 µM (inactive)
same,GI50,SNB-19,> 100 µM (inactive)
same,GI50,SNB-75,7.6 µM (inactive)
same,GI50,SR,21.1 µM (inactive)
same,GI50,SW-620,87.9 µM (inactive)
same,GI50,T47D,24.7 µM (inactive)
same,GI50,TK-10,> 100 µM (inactive)
same,GI50,U-251,18.5 µM (inactive)
same,GI50,UACC-257,> 100 µM (inactive)
same,GI50,UACC-62,46 µM (inactive)
same,GI50,UO-31,15.3 µM (inactive)
